Legend:
[1] = Membrane permeability by PAMPA assay; format: ADME; conditions: read-out: permeability
[2] = Selectivity of Tpl2 to CAMK2
[3] = Selectivity of Tpl2 to MK2
[4] = Selectivity of Tpl2 to PKC
[5] = Selectivity of Tpl2 to p38
[6] = Selectivity of Tpl2 to Src
[7] = Selectivity of Tpl2 to PKA
[8] = Selectivity of Tpl2 to EGFR
[9] = Clearance in rat; format: ADME, organism-based; conditions: in vivo
[10] = AUC in rat at 100 mg/kg, po; format: ADME, organism-based; parameters: dose 100 mg/kg, route oral; conditions: plasma
[11] = Cmax in rat at 100 mg/kg, po; format: ADME, organism-based; parameters: dose 100 mg/kg, route oral; conditions: in vivo

## N#Cc1cnc2c(Br)cc(NCc3cn(CCC4CCCN4)nn3)cc2c1Nc1ccc(F)c(Cl)c1 (stereo not drawn)
[1]
  Papp: 0.72 ×10⁻⁶ cm/s
[2]
  fold change (FC): 10
[3]
  fold change (FC): 10
[4]
  fold change (FC): 10
[5]
  fold change (FC): 10
[6]
  fold change (FC): 10
[7]
  fold change (FC): 10

## CCN1CCC(CCn2cc(CNc3cc(Cl)c4ncc(C#N)c(Nc5ccc(F)c(Cl)c5)c4c3)nn2)CC1
[2]
  fold change (FC): 10
[3]
  fold change (FC): 10
[4]
  fold change (FC): 10
[5]
  fold change (FC): 10
[6]
  fold change (FC): 10
[7]
  fold change (FC): 10

## N#Cc1cnc2c(Br)cc(NCc3cn(-c4ccccc4)nn3)cc2c1Nc1ccc(F)c(Cl)c1
[1]
  Papp: 1.2 ×10⁻⁶ cm/s
[2]
  fold change (FC): 10
[3]
  fold change (FC): 10
[4]
  fold change (FC): 10
[5]
  fold change (FC): 10
[6]
  fold change (FC): 10
[7]
  fold change (FC): 10

## CC(C)N1CCC(n2cc(CNc3cc(Cl)c4ncc(C#N)c(Nc5ccc(F)c(Cl)c5)c4c3)nn2)CC1
[2]
  fold change (FC): 10
[3]
  fold change (FC): 10
[4]
  fold change (FC): 10
[5]
  fold change (FC): 10
[6]
  fold change (FC): 10
[7]
  fold change (FC): 10

## N#Cc1cnc2c(Br)cc(NCc3cn(Cc4cccnc4)nn3)cc2c1Nc1ccc(F)c(Cl)c1
[1]
  Papp: 0.13 ×10⁻⁶ cm/s
[2]
  fold change (FC): 10
[3]
  fold change (FC): 10
[4]
  fold change (FC): 10
[5]
  fold change (FC): 10
[6]
  fold change (FC): 10
[7]
  fold change (FC): 10

## N#Cc1cnc2c(Cl)cc(NCc3cn(CCN4CCCCC4)nn3)cc2c1Nc1ccc(F)c(Cl)c1
[2]
  fold change (FC): 10
[3]
  fold change (FC): 10
[4]
  fold change (FC): 10
[5]
  fold change (FC): 10
[6]
  fold change (FC): 10
[7]
  fold change (FC): 10

## N#Cc1cnc2c(Cl)cc(NCc3c[nH]nn3)cc2c1Nc1ccc(F)c(Cl)c1
[2]
  fold change (FC): 10
[3]
  fold change (FC): 10
[8]
  fold change (FC): 10
[4]
  fold change (FC): 10
[5]
  fold change (FC): 10
[6]
  fold change (FC): 10
[7]
  fold change (FC): 10

## N#Cc1cnc2c(Cl)cc(NCc3cn(Cc4cccnc4)nn3)cc2c1Nc1ccc(F)c(Cl)c1
[1]
  Papp: 0.18 ×10⁻⁶ cm/s
[2]
  fold change (FC): 10
[3]
  fold change (FC): 10
[4]
  fold change (FC): 10
[5]
  fold change (FC): 10
[6]
  fold change (FC): 10
[7]
  fold change (FC): 10

## N#Cc1cnc2c(Cl)cc(NCc3cn(C4CCNCC4)nn3)cc2c1Nc1ccc(F)c(Cl)c1
[1]
  Papp: 0.03 ×10⁻⁶ cm/s
[2]
  fold change (FC): 10
[3]
  fold change (FC): 10
[4]
  fold change (FC): 10
[5]
  fold change (FC): 10
[6]
  fold change (FC): 10
[7]
  fold change (FC): 10

## N#Cc1cnc2c(Cl)cc(NCc3cn(CCN4CCCCCC4)nn3)cc2c1Nc1ccc(F)c(Cl)c1
[2]
  fold change (FC): 10
[3]
  fold change (FC): 10
[4]
  fold change (FC): 10
[5]
  fold change (FC): 10
[6]
  fold change (FC): 10
[7]
  fold change (FC): 10

## N#Cc1cnc2c(Cl)cc(NCc3cn(-c4ccncc4)nn3)cc2c1Nc1ccc(F)c(Cl)c1
[2]
  fold change (FC): 10
[3]
  fold change (FC): 10
[9]
  clearance: 28 mL/min/kg
[4]
  fold change (FC): 10
[5]
  fold change (FC): 10
[6]
  fold change (FC): 10
[7]
  fold change (FC): 10

## N#Cc1cnc2c(Br)cc(NCc3c[nH]nn3)cc2c1Nc1ccc(F)c(Cl)c1
[3]
  fold change (FC): 10
[4]
  fold change (FC): 10
[5]
  fold change (FC): 10
[6]
  fold change (FC): 10
[7]
  fold change (FC): 10

## N#Cc1cnc2c(Cl)cc(NCc3cn(CC(=O)O)nn3)cc2c1Nc1ccc(F)c(Cl)c1
[1]
  Papp: 0.04 ×10⁻⁶ cm/s
[2]
  fold change (FC): 10
[3]
  fold change (FC): 10
[4]
  fold change (FC): 10
[5]
  fold change (FC): 10
[6]
  fold change (FC): 10
[7]
  fold change (FC): 10

## N#Cc1cnc2c(Cl)cc(NCc3cn(CCN4CCOCC4)nn3)cc2c1Nc1ccc(F)c(Cl)c1
[2]
  fold change (FC): 10
[3]
  fold change (FC): 10
[4]
  fold change (FC): 10
[5]
  fold change (FC): 10
[6]
  fold change (FC): 10
[7]
  fold change (FC): 10

## N#Cc1cnc2c(Cl)cc(NCc3cn(CCC4CCCN4)nn3)cc2c1Nc1ccc(F)c(Cl)c1 (stereo not drawn)
[1]
  Papp: 0.57 ×10⁻⁶ cm/s
[2]
  fold change (FC): 10
[3]
  fold change (FC): 10
[4]
  fold change (FC): 10
[5]
  fold change (FC): 10
[6]
  fold change (FC): 10
[7]
  fold change (FC): 10

## N#Cc1cnc2c(Cl)cc(NCc3cn(-c4ccccc4)nn3)cc2c1Nc1ccc(F)c(Cl)c1
[2]
  fold change (FC): 10
[3]
  fold change (FC): 10
[4]
  fold change (FC): 10
[5]
  fold change (FC): 10
[6]
  fold change (FC): 10
[7]
  fold change (FC): 10

## CN(C)CCn1cc(CNc2cc(Cl)c3ncc(C#N)c(Nc4ccc(F)c(Cl)c4)c3c2)nn1
[2]
  fold change (FC): 10
[3]
  fold change (FC): 10
[4]
  fold change (FC): 10
[5]
  fold change (FC): 10
[6]
  fold change (FC): 10
[7]
  fold change (FC): 10

## N#Cc1cnc2c(Cl)cc(NCc3cn(CCCN)nn3)cc2c1Nc1ccc(F)c(Cl)c1
[2]
  fold change (FC): 10
[3]
  fold change (FC): 10
[4]
  fold change (FC): 10
[5]
  fold change (FC): 10
[6]
  fold change (FC): 10
[7]
  fold change (FC): 10

## CC(C)(C)n1cc(CNc2cc(Cl)c3ncc(C#N)c(Nc4ccc(F)c(Cl)c4)c3c2)nn1
[1]
  Papp: 0.1 ×10⁻⁶ cm/s
[3]
  fold change (FC): 10
[4]
  fold change (FC): 10
[5]
  fold change (FC): 10
[6]
  fold change (FC): 10
[7]
  fold change (FC): 10

## CN1CCCC1CCn1cc(CNc2cc(Cl)c3ncc(C#N)c(Nc4ccc(F)c(Cl)c4)c3c2)nn1 (stereo not drawn)
[2]
  fold change (FC): 10
[3]
  fold change (FC): 10
[4]
  fold change (FC): 10
[5]
  fold change (FC): 10
[6]
  fold change (FC): 10
[7]
  fold change (FC): 10

## N#Cc1cnc2c(Cl)cc(NCc3cn(-c4cccnc4)nn3)cc2c1Nc1ccc(F)c(Cl)c1
[2]
  fold change (FC): 10
[3]
  fold change (FC): 10
[4]
  fold change (FC): 10
[5]
  fold change (FC): 10
[6]
  fold change (FC): 10
[7]
  fold change (FC): 10

## CN1CCC(n2cc(CNc3cc(Cl)c4ncc(C#N)c(Nc5ccc(F)c(Cl)c5)c4c3)nn2)CC1
[1]
  Papp: 0.39 ×10⁻⁶ cm/s
[2]
  fold change (FC): 10
[3]
  fold change (FC): 10
[4]
  fold change (FC): 10
[5]
  fold change (FC): 10
[6]
  fold change (FC): 10
[7]
  fold change (FC): 10

## N#Cc1cnc2c(Cl)cc(NCc3cn(CCN)nn3)cc2c1Nc1ccc(F)c(Cl)c1
[2]
  fold change (FC): 10
[3]
  fold change (FC): 10
[4]
  fold change (FC): 10
[5]
  fold change (FC): 10
[6]
  fold change (FC): 10
[7]
  fold change (FC): 10

## N#Cc1cnc2c(Cl)cc(NCc3cn(C4CCN(C5CCC5)CC4)nn3)cc2c1Nc1ccc(F)c(Cl)c1
[1]
  Papp: 0.43 ×10⁻⁶ cm/s
[2]
  fold change (FC): 10
[3]
  fold change (FC): 10
[4]
  fold change (FC): 10
[5]
  fold change (FC): 10
[6]
  fold change (FC): 10
[7]
  fold change (FC): 10

## N#Cc1cnc2c(Cl)cc(NCc3cn(Cc4ccncc4)nn3)cc2c1Nc1ccc(F)c(Cl)c1
[2]
  fold change (FC): 10
[3]
  fold change (FC): 10
[9]
  clearance: 88 mL/min/kg
[4]
  fold change (FC): 10
[5]
  fold change (FC): 10
[6]
  fold change (FC): 10
[7]
  fold change (FC): 10

## N#Cc1cnc2c(Cl)cc(NCc3cn(Cc4ccccc4)nn3)cc2c1Nc1ccc(F)c(Cl)c1
[2]
  fold change (FC): 10
[3]
  fold change (FC): 10
[4]
  fold change (FC): 10
[5]
  fold change (FC): 10
[6]
  fold change (FC): 10
[7]
  fold change (FC): 10

## N#Cc1cnc2c(Cl)cc(NCc3cn(Cc4ccccn4)nn3)cc2c1Nc1ccc(F)c(Cl)c1
[2]
  fold change (FC): 10
[3]
  fold change (FC): 10
[4]
  fold change (FC): 10
[5]
  fold change (FC): 10
[6]
  fold change (FC): 10
[7]
  fold change (FC): 10

## CCN1CCC(n2cc(CNc3cc(Cl)c4ncc(C#N)c(Nc5ccc(F)c(Cl)c5)c4c3)nn2)CC1
[1]
  Papp: 0.36 ×10⁻⁶ cm/s
[2]
  fold change (FC): 10
[3]
  fold change (FC): 10
[10]
  AUC: 4840 ng·h/mL
[8]
  fold change (FC): 6880
[11]
  Cmax: 517 ng/mL
[4]
  fold change (FC): 10
[5]
  fold change (FC): 10
[6]
  fold change (FC): 10
[7]
  fold change (FC): 10

## CCCN1CCC(n2cc(CNc3cc(Cl)c4ncc(C#N)c(Nc5ccc(F)c(Cl)c5)c4c3)nn2)CC1
[1]
  Papp: 0.48 ×10⁻⁶ cm/s
[2]
  fold change (FC): 10
[3]
  fold change (FC): 10
[4]
  fold change (FC): 10
[5]
  fold change (FC): 10
[6]
  fold change (FC): 10
[7]
  fold change (FC): 10

## CC(C)(C)n1cc(CNc2cc(Br)c3ncc(C#N)c(Nc4ccc(F)c(Cl)c4)c3c2)nn1
[2]
  fold change (FC): 10
[3]
  fold change (FC): 10
[4]
  fold change (FC): 10
[5]
  fold change (FC): 10
[6]
  fold change (FC): 10
[7]
  fold change (FC): 10

## N#Cc1cnc2c(Br)cc(NCc3cn(CC(=O)O)nn3)cc2c1Nc1ccc(F)c(Cl)c1
[1]
  Papp: 1.8 ×10⁻⁶ cm/s
[2]
  fold change (FC): 10
[3]
  fold change (FC): 10
[4]
  fold change (FC): 10
[5]
  fold change (FC): 10
[6]
  fold change (FC): 10
[7]
  fold change (FC): 10
